What was measured:
Type in all cases: cell-based
Orco-Or47a [1] = molecular target: T1, Orco-Or47a (Drosophila melanogaster, UniProt P81921+Q9VNB5); assay: Response after rehydration with cycloheximide treatment, Orco-Or47a stable expression cell line; parameters: remnant residues; expressed in transfected cells; host or cells: Pv11 cells (Polypedilum vanderplanki), CRIS-PITCh knock-in at the Pv.00443 locus downstream of the 121 promoter, Zeocin selection and single-cell sorting
T1 sequence (Q9VNB5 1-486): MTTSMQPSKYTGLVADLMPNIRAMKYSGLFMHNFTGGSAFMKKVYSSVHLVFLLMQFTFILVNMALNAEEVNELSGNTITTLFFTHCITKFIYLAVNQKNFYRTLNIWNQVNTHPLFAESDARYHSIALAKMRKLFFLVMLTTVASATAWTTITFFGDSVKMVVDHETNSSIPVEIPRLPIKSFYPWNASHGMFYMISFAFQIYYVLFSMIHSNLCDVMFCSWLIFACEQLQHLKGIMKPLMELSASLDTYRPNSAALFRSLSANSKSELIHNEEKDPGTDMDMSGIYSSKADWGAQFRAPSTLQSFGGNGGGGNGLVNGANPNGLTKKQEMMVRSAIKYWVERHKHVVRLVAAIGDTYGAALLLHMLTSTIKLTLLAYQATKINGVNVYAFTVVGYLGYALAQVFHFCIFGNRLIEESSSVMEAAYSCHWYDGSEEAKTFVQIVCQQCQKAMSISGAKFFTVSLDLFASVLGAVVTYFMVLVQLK
T1 sequence (P81921 1-385): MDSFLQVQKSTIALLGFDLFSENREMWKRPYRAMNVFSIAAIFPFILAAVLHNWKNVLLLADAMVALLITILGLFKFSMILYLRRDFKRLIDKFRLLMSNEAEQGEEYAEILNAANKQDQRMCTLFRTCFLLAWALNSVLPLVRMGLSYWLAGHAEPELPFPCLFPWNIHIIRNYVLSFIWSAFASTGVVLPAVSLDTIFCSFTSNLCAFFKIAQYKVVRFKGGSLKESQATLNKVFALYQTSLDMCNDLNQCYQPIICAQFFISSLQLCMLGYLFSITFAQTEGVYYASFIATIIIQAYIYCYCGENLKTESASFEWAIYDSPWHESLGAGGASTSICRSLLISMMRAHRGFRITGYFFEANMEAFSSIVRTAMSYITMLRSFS
Method: 7. Confirmation that exogenous membrane protein responses in Orco-Or47a stable expression cell lines immediately after rehydration are not due to de novo protein synthesis. To confirm that the membrane protein response of the Orco-Or47a stable expression cell line immediately after rehydration was not due to de novo protein synthesis, cells were treated with cycloheximide (CHX, a protein synthesis inhibitor).
A previous study reported that 0.35 mM of cycloheximide is able to inhibit protein production in Pv11 cells. Therefore, also in this experiment, cycloheximide was dissolved in IPL-41 medium so that the cycloheximide concentration was 0.35 mM. An IPL-41 medium with 0.01 mM, 0.07 mM and 0.7 mM cycloheximide was also prepared. The rehydration of dried cells was performed using 1 ml of I PL-41 medium containing cycloheximide. One hour after rehydration and 24 hours after rehydration, the same operation as in 3.6 above was performed, and the fluorescence intensity was measured and analyzed. The ΔF/F0 was as described above. FIG. 7A and FIG. 7B are graphs showing changes in fluorescence intensity of the Orco-Or47a stable expression cell line response to VUAA1 and pentyl acetate, respectively, one hour after drying and rehydration. FIGS. 7C and 7D are graphs showing changes in fluorescence intensity, respectively, in response to VUAA1 and pentyl acetate of Orco-Or47a stable expression cell lines 24 hours after drying and rehydration.

Orco-Or47a [2] = molecular target: T1, Orco-Or47a; assay: Response of BAM-immobilized Orco-Or47a stable expression cell line; parameters: remnant residues; expressed in transfected cells; host or cells: Pv11 cells (Polypedilum vanderplanki), CRIS-PITCh knock-in at the Pv.00443 locus downstream of the 121 promoter, Zeocin selection and single-cell sorting; conditions: Pv11-GCaMP6f-Orco-Or47a stable expression cell line immobilized with BAM
Description: (§1) 8.1 Pv11 cell immobilization. A cell membrane modifier (BAM: Biocompatible Anchor for cell Membrane) was used to fix the stable expression cell line obtained above. BAM consists of a hydrophilic PEG chain, an NHS group, and a hydrophobic oleyl group; by bringing BAM into contact with a collagen-coated dish, the NHS group binds to collagen, and the oleyl group interacts with the cell membrane through hydrophobic interactions, allowing cells to adhere. BAM (SUNBRIGHT OE-040CS, Yuka Sangyo Co., Ltd.) was dissolved in DMSO (Fujifilm Wako Pure Chemical Industries) to a concentration of 10 mM. The 10 mM BAM solution was adjusted to DPBS(-) (Thermo Fisher) to a final concentration of 100 μM, 100 μl was dropped onto a collagen 1-coated 48-well microplate (IWAKI) and incubated at 37° C. for 1 hour. The BAM solution was removed, washed once with DPBS(-) (Thermo Fisher) and five times with MilliQ, and allowed to stand still to evaporate water droplets. The Pv11 cell suspension was centrifuged at 700 g for 3 minutes, the supernatant was removed, the cell pellet was suspended in DPBS(-) (Thermo Fisher) and dropped onto a BAM-coated dish. […]
(§2) 8.2 Functional confirmation of exogenous membrane proteins in fixed cells. […] Each substance was reacted with each cell in the same manner as in 3.2 above, and the fluorescence intensity was measured. […]

Orco = molecular target: T2, Orco (Drosophila melanogaster, UniProt Q9VNB5); assay: Response of BAM-immobilized Orco stable expression cell line; conditions: Pv11-GCaMP6f-Orco stable expression cell line immobilized with BAM
T2 construct: remnant residues; expressed in transfected cells; host or cells: Pv11 cells (Polypedilum vanderplanki), knock-in at the Pv.00443 locus downstream of the 121 promoter, single-cell sorting
T2 sequence (Q9VNB5 1-486): T1 sequence (Q9VNB5 1-486)
Description: as §1, §2

[3] = 1 hour after drying-rehydration
[4] = 24 hours after rehydration, without CHX

Compound	response as change in fluorescence intensity (ΔF/F0) (Orco-Or47a [1]; [3])	response as change in fluorescence intensity (ΔF/F0) (Orco-Or47a [1]; [4])	response (fluorescence intensity) of immobilized cells (Orco-Or47a [2])	response (fluorescence intensity) of immobilized cells (Orco)
CCc1ccc(NC(=O)CSc2nnc(-c3cccnc3)n2CC)cc1 [VUAA1, N-(4-ethylphenyl)-2-{[4-ethyl-5-(pyridin-3-yl)-4H-1,2,4-triazol-3-yl]sulfanyl}acetamide]	specific responses	strongly enhanced	responded	did respond
CCCCCOC(C)=O [pentyl acetate]	specific responses	strongly enhanced	responded	did not respond

Source: patent US20250197799A1, “CELLS DERIVED FROM POLYPEDILUM VANDERPLANKI AND ODOR SENSOR EQUIPPED THEREWITH” (University of Maryland, College Park, priority 2022, published 2025)
